This is an account of results in patent US10894777B2, “TG2 inhibitor piperazine compounds and uses thereof” (UNIVERSITY OF OTTAWA, priority 2016, dated 2021).

The target of data set [1] is T1, TG2 (Homo sapiens, UniProt P21980).
T1 sequence (P21980 1-687): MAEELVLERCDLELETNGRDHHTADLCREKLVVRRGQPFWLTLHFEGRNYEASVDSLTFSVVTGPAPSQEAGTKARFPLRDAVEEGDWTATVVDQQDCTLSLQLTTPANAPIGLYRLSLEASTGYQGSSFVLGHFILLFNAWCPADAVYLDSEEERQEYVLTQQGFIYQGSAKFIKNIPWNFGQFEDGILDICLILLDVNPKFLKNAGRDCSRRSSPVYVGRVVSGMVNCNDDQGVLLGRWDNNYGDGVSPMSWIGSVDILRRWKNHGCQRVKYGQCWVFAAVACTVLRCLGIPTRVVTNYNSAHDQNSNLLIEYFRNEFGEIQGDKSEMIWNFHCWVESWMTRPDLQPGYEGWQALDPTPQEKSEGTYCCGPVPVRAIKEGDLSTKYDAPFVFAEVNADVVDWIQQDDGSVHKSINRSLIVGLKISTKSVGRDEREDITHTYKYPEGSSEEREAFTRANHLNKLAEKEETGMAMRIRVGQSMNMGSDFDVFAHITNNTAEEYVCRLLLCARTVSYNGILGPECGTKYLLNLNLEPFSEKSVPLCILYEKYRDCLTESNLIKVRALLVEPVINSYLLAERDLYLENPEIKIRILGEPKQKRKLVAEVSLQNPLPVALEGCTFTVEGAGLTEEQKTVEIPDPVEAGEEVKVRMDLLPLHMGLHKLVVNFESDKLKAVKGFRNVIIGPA
The experiment in a line: Kinetic inactivation of purified recombinant human TG2, continuous spectrophotometric activity assay (Examples 3, 10). The class given is biochemical. Also noted: made in house. The conditions noted are these: Table 4; for kinact/KI: read-out: kinact/Ki (μM^−1 min^−1), for ^a no saturation observed, efficiency obtained from initial slope. Here is the method:
Kinetic studies were carried out in vitro, using purified recombinant human TG2 (Roy, I. et al., Protein Expr. Purif. 87: 41-46, 2013) and a direct, continuous spectrophotometric activity assay (Leblanc, A. et al., Biochemistry 40: 8335-8342, 2001).
Kinetics. Kinetic runs were performed at 25° C. in 100 mM MOPS buffer (pH 7.0) containing 3 mM CaCl2 and 50 μM EDTA. […] Stock solutions of the substrate and inhibitors were prepared in DMF such that the final concentration of this co-solvent was constant at 10% v/v. Reactions were initiated with the addition of enzyme with an activity of approximately 0.05 U/mL. Kinetic evaluation was carried out by the method of Stone and Hofsteenge (Stone, S. R. and Hofsteenge, J., Biochem. J. 230: 497-502, 1985). […] Observed first-order rate constants of inactivation were determined from non-linear regression, to a mono-exponential model. These rate constants were in turn fit to equation 1 by non-linear regression, providing the kinetic parameters
Kinetic parameters were determined as described above.

Data set [2] deals with T1, TG2. Briefly: Colorimetric transamidase activity assay (AL5 substrate), hTG2. The class given is biochemical. The conditions noted are these: for kinact/KI: read-out: kinact/KI (10^3M^−1 min^−1); for enzyme inactivation, relative observed rate constants (kobs): high concentration of inhibitor (18 μM, FIG. 43).
Method: In Vitro Assays. Colorimetric transamidase activity assay. The activities of hTG1, hTG2 and hTG6 were measured via a colorimetric assay using the chromogenic substrate Cbz-Glu(γ-p-nitrophenyl ester)Gly (AL5). The assay was conducted at 25° C. in 100 mM MOPS buffer (pH 6.5) containing 3.0 mM CaCl2 and 50 μM EDTA. […] A stock solution of AL5 was prepared in DMSO such that the final concentration of this co-solvent was constant at 2.5% v/v. Stock solutions of the inhibitors were made in the buffer system previously described. The reaction was initiated with the addition of 40-60 mU/mL of the respective enzyme (0.10 μM hTG1, 0.25 μM hTG2 or 0.32 μM hTG6). Product formation was monitored at 405 nm in a polystyrene 96-well microplate using a BioTek Synergy 4 plate reader. […] Observed first-order rate constants of inactivation (kobs) were determined from non-linear regression fit to a mono-exponential model (Equation 1) of the observed absorbance of the enzymatic hydrolysis product, p-nitrophenolate (pNP). […] Experiments were done in triplicate and variation between repeats was less than 30%.
Where [3] appears, read: Table 8, read-out: kinact (converted).
Setting [4] is: Table 5, read-out: kinact (converted).
The mark [5] stands for this setting: Table 7, read-out: kinact (converted).

What is called kinact is the maximal first-order rate at which the target is inactivated. Take `C=CC(=O)NCCCC[C@H](NC(=O)OCc1ccccc1)C(=O)N1CCN(C(=O)c2ccc3ccccc3c2)CC1` [AA10, (S)-benzyl(1-(4-(2-naphthoyl)piperazin-1-yl)-6-acrylamido-1-oxohexan-2-yl)carbamate]: the kinact in data set [1] and in data set [2] (setting [3]) was 0.0202 s⁻¹ each time. In addition, the kinact/KI in data set [1] is 4000 M⁻¹ s⁻¹; in data set [2] (Table 8), 1500 M⁻¹ s⁻¹.
As a reminder, the melting point is the temperature of the solid-liquid transition. `C=CC(=O)NCCCC[C@H](NC(=O)OCc1ccccc1)C(=O)NCCCCNS(=O)(=O)c1cccc2c(N(C)C)cccc12` [Compound 109, (S)-benzyl (6-acrylamido-1-((4-(5-(dimethylamino)naphthalene-1-sulfonamido)butyl)amino)-1-oxohexan-2-yl)carbamate] yielded a melting point of 54 to 56 °C. In addition, the kinact/KI in data set [1] was 883 M⁻¹ s⁻¹. Also, the kinact in data set [2] (setting [4]) is 0.0365 s⁻¹. In addition, in data set [2] (Table 5), the kinact/KI was 1350 M⁻¹ s⁻¹.
As for `C=CC(=O)NCCCC[C@H](NC(=O)OCc1ccccc1)C(=O)NCCCNS(=O)(=O)c1cccc2c(N(C)C)cccc12` [Compound 110, (S)-benzyl (6-acrylamido-1-((3-(5-(dimethylamino)naphthalene-1-sulfonamido)propyl)amino)-1-oxohexan-2-yl)carbamate], the melting point fell in the range of 65 to 67 °C. In data set [1], the kinact/KI is 783 M⁻¹ s⁻¹. For the same compound, in data set [2] (setting [4]), the kinact is 0.0142 s⁻¹. For the same compound, the kinact/KI in data set [2] (Table 5) was 460 M⁻¹ s⁻¹.
On to `C=CC(=O)NCCCC[C@H](NC(=O)OCc1ccccc1)C(=O)NCCNS(=O)(=O)c1cccc2c(N(C)C)cccc12` [Compound 111, (S)-benzyl (6-acrylamido-1-((2-(5-(dimethylamino)naphthalene-1-sulfonamido)ethyl)amino)-1-oxohexan-2-yl)carbamate], for which the kinact in data set [1] and in data set [2] (setting [4]) was 0.0242 s⁻¹ throughout. The figures for the kinact/KI in data set [1] and in data set [2] (Table 5) were 1030 M⁻¹ s⁻¹ and 1020 M⁻¹ s⁻¹, respectively.
As for `C=CC(=O)NC[C@H](NC(=O)OCc1ccccc1)C(=O)N1CCN(S(=O)(=O)c2cccc3c(N(C)C)cccc23)CC1` [Compound 115, (S)-benzyl (3-acrylamido-1-(4-((5-(dimethylamino)naphthalen-1-yl)sulfonyl)piperazin-1-yl)-1-oxopropan-2-yl)carbamate], the “enzyme inactivation, relative observed rate constants (kobs)” value in data set [2] was “no significant enzyme inactivation was observed”.
The same measure, in the same setting: the entry for `C=CC(=O)NCC[C@H](NC(=O)OCc1ccccc1)C(=O)N1CCN(S(=O)(=O)c2cccc3c(N(C)C)cccc23)CC1` [Compound 116, (S)-benzyl (4-acrylamido-1-(4-((5-(dimethylamino)naphthalen-1-yl)sulfonyl)piperazin-1-yl)-1-oxobutan-2-yl)carbamate] is “no significant enzyme inactivation was observed”.
For the compound `C=CC(=O)NCCC[C@H](NC(=O)OCc1ccccc1)C(=O)N1CCN(S(=O)(=O)c2cccc3c(N(C)C)cccc23)CC1` [Compound 117, (S)-benzyl (5-acrylamido-1-(4-((5-(dimethylamino)naphthalen-1-yl)sulfonyl)piperazin-1-yl)-1-oxopentan-2-yl)carbamate], the melting point was in the range of 69 to 70 °C. In addition, in data set [1], the kinact was 0.0134 s⁻¹ and the kinact/KI is 1480 M⁻¹ s⁻¹. For the same compound, the kinact in data set [2] (Table 6, read-out: kinact (converted)) was 0.0197 s⁻¹. Further, in data set [2], the “enzyme inactivation, relative observed rate constants (kobs)” value is listed as “reappearance of enzyme inhibition albeit only modestly”. In addition, the kinact/KI in data set [2] (Table 6) was 412 M⁻¹ s⁻¹.
On to `C=CC(=O)NCCCC[C@H](NC(=O)OCc1ccccc1)C(=O)N1CCN(S(=O)(=O)c2cccc3ccccc23)CC1` [Compound 128, (S)-benzyl 6-acrylamido-1-(4-(naphthalen-1-ylsulfonyl)piperazin-1-yl)-1-oxohexan-2-yl-carbamate], for which the melting point lay in the range of 59 to 61 °C. In addition, in data set [1], the kinact was 0.0082 s⁻¹ and the kinact/KI was 2130 M⁻¹ s⁻¹. For the same compound, the “rate constant of inactivation relative to VA4” value in data set [2] was “more than three-fold less”. The kinact in data set [2] (setting [5]) was 0.0065 s⁻¹. In addition, in data set [2] (Table 7), the kinact/KI is 620 M⁻¹ s⁻¹.
Turning to `C=CC(=O)NCCCC[C@H](NC(=O)OCc1ccccc1)C(=O)N1CCN(S(=O)(=O)c2ccccc2)CC1` [Compound 130, (S)-benzyl (6-acrylamido-1-oxo-1-(4-(phenylsulfonyl)piperazin-1-yl)hexan-2-yl)carbamate], the values for the kinact in data set [1] and in data set [2] (setting [5]) were 0.0102 s⁻¹ and 0.00783 s⁻¹, respectively. For the same compound, the results for the kinact/KI in data set [1] and in data set [2] (Table 7) were 2180 M⁻¹ s⁻¹ and 888 M⁻¹ s⁻¹, respectively.
For `C=CC(=O)NCCCC[C@H](NC(=O)OCc1ccccc1)C(=O)N1CCN(S(=O)(=O)C2CCCCC2)CC1` [Compound 132, (S)-benzyl (6-acrylamido-1-(4-(cyclohexylsulfonyl)piperazin-1-yl)-1-oxohexan-2-yl)carbamate] the same measures were 0.0083 s⁻¹, 0.0115 s⁻¹, 2430 M⁻¹ s⁻¹ and 1050 M⁻¹ s⁻¹.
On to `C=CC(=O)NCCCC[C@H](NC(=O)OCc1ccccc1)C(=O)N1CCN(S(=O)(=O)CC)CC1` [Compound 134, (S)-benzyl (6-acrylamido-1-(4-(ethylsulfonyl)piperazin-1-yl)-1-oxohexan-2-yl)carbamate], for which the kinact in data set [2] (setting [5]) was 0.0237 s⁻¹. The kinact/KI in data set [2] (Table 7) is 657 M⁻¹ s⁻¹.
On to `C=CC(=O)NCCCC[C@H](NC(=O)OCc1ccccc1)C(=O)N1CCN(S(C)(=O)=O)CC1` [Compound 135, (S)-benzyl(6-acrylamido-1-(4-(methylsulfonyl)piperazin-1-yl)-1-oxohexan-2-yl)carbamate], for which the kinact in data set [1] is 0.0153 s⁻¹; in data set [2] (setting [5]) it was 0.00833 s⁻¹. In addition, the kinact/KI in data set [1] is 2730 M⁻¹ s⁻¹; in data set [2] (Table 7), 1310 M⁻¹ s⁻¹.
As for `C=CC(=O)NCCCC[C@H](NC(=O)OCc1ccccc1)C(=O)N1CCN(S(=O)(=O)c2cccs2)CC1` [Compound 136, (S)-benzyl(6-acrylamido-1-oxo-1-(4-(thiophen-2-ylsulfonyl)piperazin-1-yl)hexan-2-yl)carbamate], the kinact in data set [2] (setting [5]) was 0.0247 s⁻¹. Also, in data set [2] (Table 7), the kinact/KI was 613 M⁻¹ s⁻¹.
`C=CC(=O)NCCC[C@H](NC(=O)OCc1ccccc1)C(=O)N1CCN(C(=O)c2ccccc2)CC1` [Compound 149, (S)-benzyl (5-acrylamido-1-(4-benzoylpiperazin-1-yl)-1-oxopentan-2-yl)carbamate]: the kinact in data set [2] (setting [3]) is 0.0795 s⁻¹. Also, in data set [2] (Table 8), the kinact/KI is 2170 M⁻¹ s⁻¹.
`C=CC(=O)NCCCC[C@H](NC(=O)OCc1ccccc1)C(=O)N1CCN(C(=O)Cc2ccccc2)CC1` [Compound 150, (S)-benzyl (6-acrylamido-1-oxo-1-(4-(2-phenylacetyl)piperazin-1-yl)hexan-2-yl)carbamate]: the melting point was 48 to 49 °C. In addition, the kinact in data set [2] (setting [3]) was 0.0377 s⁻¹. Moreover, the kinact/KI in data set [2] (Table 8) was 1880 M⁻¹ s⁻¹.
In the case of `C=CC(=O)NCCC[C@H](NC(=O)OCc1ccccc1)C(=O)N1CCN(C(C)=O)CC1` [Compound 151, (S)-benzyl(1-(4-acetylpiperazin-1-yl)-5-acrylamido-1-oxopentan-2-yl)carbamate], the inactivation rate constant (kinact) in data set [2] (setting [3]) was 0.0343 s⁻¹. In data set [2] (amide (Table 8) vs sulfonamide (Table 7)), the “overall inhibition efficiency compared to sulfonamide counterpart” value is reported as “almost three times less”. For the same compound, in data set [2] (Table 8), the kinact/KI is 615 M⁻¹ s⁻¹.
Regarding `C=CC(=O)NCCCC[C@H](NC(=O)OCc1ccccc1)C(=O)N1CCN(C(=O)c2ccccn2)CC1` [Compound 152, (S)-benzyl(6-acrylamido-1-oxo-1-(4-picolinoylpiperazin-1-yl)hexan-2-yl)carbamate], in data set [2] (Table 8), the “kinact” value is 0.0488 ± 0.00483 s⁻¹ and the “kinact/KI (10^3M^−1 min^−1)” value is on record as 91.3 ± 17.9 10^3M^−1 min^−1.
`C=CC(=O)NCCCC[C@H](NC(=O)OCc1ccccc1)C(=O)N1CCN(C(=O)c2cccnc2)CC1` [Compound 153, (S)-benzyl (6-acrylamido-1-(4-nicotinoylpiperazin-1-yl)-1-oxohexan-2-yl)carbamate]: in data set [2] (setting [3]), the kinact is 0.024 s⁻¹. Also, the kinact/KI in data set [2] (Table 8) was 1020 M⁻¹ s⁻¹.
For `C=CC(=O)NCCCC[C@H](NC(=O)OCc1ccccc1)C(=O)N1CCN(C(=O)c2ccncc2)CC1` [Compound 154, (S)-benzyl-(6-acrylamido-1-(4-isonicotinoylpiperazin-1-yl)-1-oxohexan-2-yl)carbamate] the same measures were 0.0238 s⁻¹ and 617 M⁻¹ s⁻¹.
